The values that follow come from patent US20220249504A1, “LONGEVITY SIGNATURES AND THEIR APPLICATIONS” (The Brigham and Women's Hospital, Inc., priority 2019, published 2022).

Series [1] relates to mice. As to conditions: cited from earlier work; for Effect on lifespan in the ITP mouse cohort: at the concentrations used (Miller et al., 2011; Strong et al., 2013, 2016).
Series [2] relates to mouse liver gene expression. The series can be described thus: Meta-analysis: Spearman correlation between hepatic gene expression profiles of interventions. In kind it is in vivo. As to conditions: for Correlation with the main cluster of interventions (defined by CR and GH deficiency): median Spearman correlation matrix. From the text:
To identify signatures associated with lifespan extension and the effect of certain interventions, we expanded our data with publicly available datasets from Gene Expression Omnibus (GEO) (Edgar, 2002) and ArrayExpress (Kolesnikov et al., 2015) databases. For the analysis of signatures associated with certain interventions (CR, rapamycin, GH deficiency), we integrated available gene expression data obtained from liver of mice from healthy genetic strains on standard diets subjected to CR, rapamycin and mutations associated with GH deficiency (Ames dwarf mice, GHRKO, Little mice, Snell dwarf mice). […] Finally, for the analysis of signatures associated with the lifespan extension effect, we integrated datasets on interventions with available and reliable survival data corresponding to the same experimental design (sex, strain, dose, age when the intervention started). In total, our hepatic meta-analysis covered 17 different interventions presented in 77 control-intervention datasets from 22 different sources (including ours) (FIG. 3D). The same approach was used to obtain microarray data corresponding to white adipose tissue (WAT) (9 control-intervention datasets from 5 sources) and skeletal muscle (13 control-intervention datasets from 9 sources).
To aggregate data across different platforms and studies, we developed the following method. First, data within each study was preprocessed independently and log-transformed to conform to normal distribution if needed. Then, filtering of low-covered genes was performed with soft threshold. Then, all identifiers were mapped to Entrez ID gene format, and genes not detected in our RNAseq data were filtered out. […] Afterwards, samples within every study were normalized by quantile normalization and scaling, followed by multiplication by the certain value to make it on the same scale as RNAseq data with more natural interpretation. Finally, mean and standard error of logFC of every gene for every response to intervention was calculated together with p-value (along with Benjamini-Hochberg adjusted p-value) estimated by edgeR (Robinson et al., 2009) and limma (Ritchie et al., 2015) for RNAseq and microarrays datasets, respectively. […] Importantly, one study may include several datasets if several interventions or settings have been analyzed there, and sometimes, different interventions or doses share the same control samples. This may be a source of batch effect, which we removed during subsequent steps of the analysis.
To calculate correlations between interventions in unbiased way, we applied the following approach. For every pair of interventions, including comparison of intervention with itself, we examined all pairs of datasets from different sources. For each such pair we selected 250 genes consisting of 125 genes with the most significant expression change (with the lowest p-values) from each dataset and calculated Spearman correlation coefficient within the pair. We reiterated this algorithm and, as a result, for every pair of interventions obtained distribution of Spearman correlation coefficients, calculated between datasets from different sources. For CR and rapamycin, we visualized these distributions using violinplot. One-sample Mann-Whitney test and Benjamini-Hochberg adjustment were used to check if means of correlation coefficients are different from 0 with statistical significance. We declared correlation coefficient to be significant if adjusted p-value was smaller than 0.1.
For correlation matrix we employed median values of Spearman correlation coefficients. By filtering out comparisons of datasets from the same source, we removed possible batch effect and ended up with independent and unbiased comparison of interventions. However, as some interventions were presented only within the same source, we couldn't estimate unbiased correlation for such cases. This missing data was visualized by grey boxes. […]

Series [3] deals with C57BL/6 mice. The series can be described thus: Frailty index of old C57BL/6 mice on compound diet. The format is in vivo, mouse. The method, then: (§1) Briefly, 24-28 mice per intervention were used, with an approximately equal number of males and females. Mice were first assessed with regard to frailty index and gait speed, and then randomized to make sure the experimental and control groups had the same average frailty index and gait speed. Mice were then given a diet containing a compound of interest. […] Mice were monitored daily until they died. A separate cohort of old mice was assessed for frailty index and gait speed.
(§2) Briefly, 24-28 mice per intervention were used, with an approximately equal number of males and females. They were first assessed with regard to frailty index and gait speed, and then randomized to make sure the experimental and control groups had the same average frailty index and gait speed. Mice were then given a diet containing a compound of interest. […] Mice were monitored daily until they died. A separate cohort of old mice was assessed for frailty index and gait speed.

The subject of series [4] is C57BL/6 mice. The series can be described thus: Glucose tolerance in old C57BL/6 mice on compound diet. In kind it is in vivo, mouse. As to conditions: old C57BL/6 mice at the dose given in diet (AZD-8055: 23-month-old, treated 2.5 months). The method, then:
23-month-old mice were treated for 2.5 months prior to analyses.

Series [5] deals with longevity signatures. The series can be described thus: GSEA-based association of publicly available hepatic gene expression datasets with longevity signatures. In kind it is in vivo, mouse. As to conditions: for Association of hepatic gene expression changes with longevity signatures: public datasets (IL-6 injection GSE21060; SRT2104 in males GSE49000). From the text:
For interventions from publicly available sources (FIG. 7E (upper)), we downloaded them from GEO under the following accession numbers: GSE21060 (Ramadoss et al., 2010), GSE77082 (Alonso et al., 2017), GSE15891 (Baze et al., 2010), GSE11287 (Osburn et al., 2008), GSE49000 (Mercken et al., 2014), GSE10421 (Kautz et al., 2008) and GSE104234 (Rhoads et al., 2018). Data corresponding to Sirt6 overexpression (Kanfi et al., 2012) were downloaded via the link provided in the original paper. When running association test for the rhesus monkey data, we converted monkey genes to mouse orthologs using Ensembl BioMart platform. We preprocessed each dataset, performed quantile normalization and Entrez ID transformation and applied limma model for calculation of p-values, which were converted to log10(p-value) corrected by the sign of regulation as explained earlier.
To calculate statistical significance of obtained GSEA score, we performed permutation test where we randomly assigned genes to the lists of gene set maintaining their size. To get p-value of association between certain intervention and longevity signature, we calculated the frequency of real final GSEA score being bigger by absolute value than random final GSEA scores obtained as results of 3,000 permutations. To adjust for multiple comparisons, we performed Benjamini-Hochberg procedure. Resulted adjusted p-values were converted into significance scores as:
significance score=−log10(adj.pv)×sgn(GSEA score),
where adj. pv and GSEA score are BH adjusted p-value and final GSEA score, respectively. Heatmaps were colored based on values of significance scores. […]

Series [6] relates to C57BL/6 mice. The series can be described thus: Gait speed of old C57BL/6 mice on compound diet. In kind it is in vivo, mouse. As to conditions: 31-month-old C57BL/6 male mice. The method, then: as §1, §2
Series [7] relates to C57BI/6 mice. The series can be described thus: Lifespan of old (2-year-old) C57BL/6 mice given a diet containing the compound. The format is in vivo, mouse. As to conditions: C57BL/6 male mice, given late in life, ad libitum in diet (AZD-8055 20 mg/kg of food, LY294002 600 mg/kg, KU-0063794 10 mg/kg of diet). The method, then:
as §1
Interventions were predicted in a screen based on the gene expression longevity signatures that we developed. The predicted interventions were then verified for gene expression responses in human and mouse primary cell culture (hepatocytes) and in live mice (after mice were fed for 1 month with the diets containing these interventions). The interventions that passed these tests were further assessed for the effect on lifespan of 2-year-old C57BI/6 mice. Older mice (2-year-old) were chosen for this experiment in order to mimic the effect of giving interventions to human subjects in their second half of life.
as §2

For series [8], the system named is sex-associated genes. The series can be described thus: Feminizing effect of lifespan-extending interventions on hepatic gene expression (RNAseq, UM-HET3 mice). The conditions noted are these: females.
Source text: Liver samples corresponding to lifespan-extending interventions for RNA-seq and metabolome analysis were taken at 6 and 12 months of age from male and female mice treated by drugs or exposed to caloric restriction (CR) diet from 4 months of age along with control mice, which were untreated littermate mice matched by age and sex.
In all cases, interventions continued until the animals were sacrificed. […] RNA was extracted from liver tissues with PureLink RNA Mini Kit as described in the protocol and passed to sequencing.
For samples corresponding to lifespan-extending interventions, paired-end sequencing with 100 bp read length was performed on illumine HiSeq2000 platform. […] Quality filtering and adapter removal were performed using Trimmomatic version 0.32.
When performing analysis of the feminizing effect, gene expression differences were identified between control males and females from UM-HET3 strains for each age group. […] The statistical significance of correlation between sex-associated differences and response to certain intervention (“feminizing effect”) was calculated using Spearman correlation test and adjusted for multiple comparisons with Benjamini-Hochberg procedure. When calculating correlation between response to certain intervention in specific age group (6 or 12 months) and female-associated differences, the latter were calculated using gene expression data for control males and females from the other age group (12 or 6 months, respectively). […]
Differences in the feminizing effect of interventions in certain age groups between males and females was tested by Spearman correlation test, applied to the difference in log2FC of gender-associated genes in response to the specified conditions between males and females, and female-associated differences based on the other age group, with the following Benjamini-Hochberg adjustment. Manhattan distance between male and female gene expression profiles was calculated for individual samples in a pairwise manner using intersection of sex-specific gene sets across age groups. […]
The mark [9] stands for this setting: datasets from different sources, 250 genes.

Entries after “also recorded” stand apart in the source; their conditions may differ.

Turning to `Oc1ccc(C=Cc2cc(O)cc(O)c2)cc1` [resveratrol], the “Effect on lifespan in the ITP mouse cohort” value in series [1] is given as “did not increase lifespan”. The “Correlation with CR at the level of gene expression (median Spearman correlation coefficient)” value (shortened to “Correlation with CR at the level”) in series [2] (setting [9]) is listed as “statistically significant positive correlations”. The “Correlation with the main cluster of interventions (defined by CR and GH deficiency)” value in series [2] is recorded as “week positive correlation”.
As for `COc1ccc(-c2ccc3c(N4CCOC[C@@H]4C)nc(N4CCOC[C@@H]4C)nc3n2)cc1CO` [AZD-8055, 5-[2,4-bis[(3S)-3-methyl-4-morpholinyl]pyrido[2,3-d]pyrimidin-7-yl]-2-methoxy-benzenemethanol], in series [3] (old C57BL/6 mice, males and females), the “Effect on frailty index” value is “no effect”. Further, the “Effect on glucose tolerance” value in series [4] is given as “does not lead to glucose intolerance; also recorded: did not compromise”.
Turning to “interleukin-6: pro-inflammatory cytokine secreted by T cells and macrophages”, in series [5], the “Association of hepatic gene expression changes with longevity signatures” value is on record as “significant negative association with all longevity signatures”.
On to `CN(C)C(=N)N=C(N)N` [metformin], for which the “Effect on lifespan in the ITP mouse cohort” value in series [1] is on record as “did not increase lifespan”. The “Correlation with CR at the level” value in series [2] (setting [9]) was “statistically significant positive correlations”. The “Correlation with the main cluster of interventions (defined by CR and GH deficiency)” value in series [2] is recorded as “week positive correlation”.
As to `O=c1cc(N2CCOCC2)oc2c(-c3ccccc3)cccc12` [LY294002, 2-Morpholin-4-yl-8-phenylchromen-4-one], in series [6], the “Effect on gait speed” value is “improves”. In addition, the “Effect on frailty index” value in series [3] (31-month-old C57BL/6 male mice) is “improves”. The “Effect on glucose tolerance” value in series [4] is listed as “No effect; also recorded: did not have a significant effect”. Moreover, in series [7], the Effect on lifespan result was “extends lifespan”.
Regarding `Cc1nc(-c2cccnc2)sc1C(=O)Nc1ccccc1-c1cn2c(CN3CCOCC3)csc2n1` [SRT2104], in series [1] (male mice (Mercken et al., 2014b)), the “Increase in median and maximum lifespan” value is on record as approximately 10%. For the same molecule, in series [5] (males, public dataset), the “Association with longevity signatures associated with the quantitative effect of lifespan extension” value is given as “no consistent positive association”. Besides, the “Association of hepatic gene expression changes with longevity signatures” value in series [5] is “significant positive associations of these models in males with CR and signatures shared by lifespan-extending interventions”.
With `C[C@H]1O[C@H](O[C@H]2[C@H](O)[C@@H](O)[C@@H](O[C@H]3[C@H](O)[C@@H](O)C(O)O[C@@H]3CO)O[C@@H]2CO)[C@H](O)[C@@H](O)[C@@H]1N[C@H]1C=C(CO)[C@@H](O)[C@H](O)[C@H]1O` (stereo partly drawn) [acarbose], the “Feminizing effect (Spearman correlation with sex-associated gene expression differences)” value in series [8] (12-month-old) was determined as 0.19.
With `CO[C@H]1C[C@@H]2CC[C@@H](C)[C@@](O)(O2)C(=O)C(=O)N2CCCC[C@H]2C(=O)O[C@H]([C@H](C)C[C@@H]2CC[C@@H](O)[C@H](OC)C2)CC(=O)[C@H](C)/C=C(\C)[C@@H](O)[C@@H](OC)C(=O)[C@H](C)C[C@H](C)/C=C/C=C/C=C/1C` [rapamycin], in series [2] (setting [9]), the “Correlation of the intervention with itself across datasets (median Spearman correlation coefficient)” value turned out to be 0.088 and the “Correlation with CR at the level” value is −0.049. Besides, the “Feminizing effect (Spearman correlation with sex-associated gene expression differences)” value in series [8] (6-month-old) was −0.14. Further, the “Feminizing effect (Spearman correlation with sex-associated gene expression differences)” value in series [8] (12-month-old) is on record as −0.49.
